Data taken from article PMC8316236, “Mechanistic physiology-based pharmacokinetic modeling to elucidate vincristine-induced peripheral neuropathy following treatment with novel kinase inhibitors” (Cancer Chemotherapy and Pharmacology, 2021).

How the values were obtained:
[1] = biological target: T1, P-glycoprotein (P-gp, ABCB1) (Homo sapiens, UniProt P08183); experiment: inside-out vesicular transport inhibition assay with tritiated probe substrate; format: biochemical
T1 construct: inside-out membrane vesicles prepared from HEK293 cells overexpressing human P-gp

[2] = biological target: T1, P-glycoprotein (P-gp, ABCB1); experiment: inside-out vesicular transport inhibition assay with tritiated probe substrate; also Caco-2 bidirectional transport ([…]); format: biochemical

T1 sequence (P08183 whole entry): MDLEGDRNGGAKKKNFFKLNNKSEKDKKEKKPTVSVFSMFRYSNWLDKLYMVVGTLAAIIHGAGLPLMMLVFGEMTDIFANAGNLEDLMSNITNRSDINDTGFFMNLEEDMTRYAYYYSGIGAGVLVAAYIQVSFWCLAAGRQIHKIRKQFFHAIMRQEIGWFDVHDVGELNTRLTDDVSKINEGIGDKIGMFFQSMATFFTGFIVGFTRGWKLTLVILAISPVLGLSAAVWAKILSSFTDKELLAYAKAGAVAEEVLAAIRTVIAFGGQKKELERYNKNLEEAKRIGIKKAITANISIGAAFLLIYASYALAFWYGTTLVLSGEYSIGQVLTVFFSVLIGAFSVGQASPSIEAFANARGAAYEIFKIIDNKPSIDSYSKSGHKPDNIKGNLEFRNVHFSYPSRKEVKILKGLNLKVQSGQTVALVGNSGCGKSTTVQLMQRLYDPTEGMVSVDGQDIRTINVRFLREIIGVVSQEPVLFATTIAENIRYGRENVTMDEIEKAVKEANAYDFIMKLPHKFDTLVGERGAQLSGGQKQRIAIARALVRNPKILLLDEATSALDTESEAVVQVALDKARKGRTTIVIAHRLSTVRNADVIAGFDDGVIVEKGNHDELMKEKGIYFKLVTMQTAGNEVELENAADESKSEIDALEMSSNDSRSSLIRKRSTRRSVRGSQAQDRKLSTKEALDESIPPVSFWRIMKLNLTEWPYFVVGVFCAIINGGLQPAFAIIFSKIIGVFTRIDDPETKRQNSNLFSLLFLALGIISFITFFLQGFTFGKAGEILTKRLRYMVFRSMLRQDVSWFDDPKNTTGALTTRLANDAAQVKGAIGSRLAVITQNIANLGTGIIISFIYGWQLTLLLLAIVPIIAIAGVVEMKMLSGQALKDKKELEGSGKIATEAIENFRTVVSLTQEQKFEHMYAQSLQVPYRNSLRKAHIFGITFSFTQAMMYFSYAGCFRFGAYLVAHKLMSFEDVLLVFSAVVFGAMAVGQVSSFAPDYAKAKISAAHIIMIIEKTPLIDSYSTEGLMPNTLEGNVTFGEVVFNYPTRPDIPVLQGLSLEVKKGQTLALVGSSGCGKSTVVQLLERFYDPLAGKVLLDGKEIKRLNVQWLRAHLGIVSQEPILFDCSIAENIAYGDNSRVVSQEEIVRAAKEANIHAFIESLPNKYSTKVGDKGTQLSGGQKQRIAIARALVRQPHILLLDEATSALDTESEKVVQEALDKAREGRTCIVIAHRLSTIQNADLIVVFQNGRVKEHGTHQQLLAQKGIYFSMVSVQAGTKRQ

C=CC(=O)N1CCC[C@@H](n2nc(-c3ccc(Oc4ccccc4)cc3)c3c(N)ncnc32)C1 [ibrutinib]
IC50 [1]: 6 µM

CC#CC(=O)N1CCC[C@H]1c1nc(-c2ccc(C(=O)Nc3ccccn3)cc2)c2c(N)nccn12 [acalabrutinib]
IC50 [2]: 57 µM
